The values that follow come from patent US7968093B2, “Fully human antibodies directed against the human insulin-like growth factor-1 receptor” (ImClone LLC, priority 2003, dated 2011).

A word on the Kd: it is the free concentration of one partner at which half of the binding sites on the other are occupied at equilibrium, for simple one-to-one binding.

For assay [1], the target named is T1, insulin receptor (IR) (Homo sapiens, UniProt P06213).
T1 construct: endogenous in cells; host or cells: ZR-75I human breast cancer cells
The assay can be described thus: Blocking of radiolabeled insulin binding to ZR-75I cells. As to conditions: ZR-75I breast cancer cells; antibody up to 200 nM.

Assay [2] concerns the target T2, IGF-IR in HT-29 cells and BxPC-3 cells (Homo sapiens, UniProt P08069).
T2 construct: endogenous in cells; HT-29; BxPC-3; HEL
Briefly: Total cellular IGF-IR after treatment. As to conditions: HT-29 and BxPC-3 cells; A12 after 3-6 hours. The class given is cell-based.

The subject of assay [3] is human colorectal cancer line HT-29. The assay can be described thus: HT-29 xenograft, A12 monotherapy. Type of assay: in vivo, mouse. The method, then: We were interested to determine if the anti-IGF-IR antibodies were capable of inhibiting human tumor growth in vivo in a nude mouse xenograft model. Tumors were induced in 3-4 week old athymic nude (nu/nu) mice by subcutaneous injection of 2-3 million viable HT-29 human colorectal cancer cells in cell culture medium. The tumors were allowed to establish and antibody treatment started when the tumor volume reached 200 mm^3. Ten animals were injected with tumor cells per treatment group. Antibody was injected intraperitoneally (IP) every three days at 1 mg or 0.5 mg in 0.5 ml TBS. The drug irenotecan (CPT-11) (LKT Laboratories) was injected IP (100 mg/kg) once a week for four weeks from the initiation of antibody treatment. Control animals received a class matched irrelevant human IgG antibody. Tumor measurements were performed at regular intervals using Vernier calipers, measuring height, width, and length and calculated to determine the total tumor volume. The study was terminated when control tumors reached 3000 mm^3.
Tumors were induced as previously described, and antibody treatment initiated once tumors were established (200 mm^3 size). Antibody treatment was then given at a concentration of 1 mg, 100 μg, or 10 μg every three days throughout the duration of the experiment. Ten animals were used per treatment group and control animals received a class match IgG control antibody.

For assay [4], the target named is T3, IGF-IR on MCF7 cells (Homo sapiens, UniProt P08069).
T3 construct: endogenous in cells
Briefly: IGF-IR surface receptor density by FACS. The class given is cell-based. Conditions: MCF7 cells incubated at 4° C. For orientation: Flow cytometry measures light scatter and fluorescence of single cells or particles in a stream.
Method: IGF-IR surface receptor density was determined by FACS. […] Cells were washed in ice-cold PBS/5% BSA twice, and 1×10^6 cells were aliquoted to staining tubes and placed on ice. An IGF-IR alpha-polypeptide specific, non-blocking mouse monoclonal antibody (Ab-1, NeoMarkers, Fremont, Calif.), was then incubated with cells at 4° C. for 2 h. After PBS/BSA washes, cells were incubated with anti-mouse IgG phycoerythrin-conjugated secondary antibody (PharMingen, BD Biosciences) for 1 h on ice. After PBS/BSA wash, cells were analyzed by fluorescence-activated cell-sorting assay using a FACSvantage SE flow cytometer (BD Bioscience).

Assay [5] deals with T4, IGF-IR (Homo sapiens, UniProt P08069). The assay can be described thus: Human IGF-IR binding ELISA. Conditions: full IgG; 50% binding relative to saturation; read-out: Binding (ED50). On the set-up: recombinant extracellular portion of human IGF-IR was used to screen. As to the method:
(§1) Binding results were determined by human IGF-IR ELISA and represent the concentration of titered antibody necessary to achieve 50% binding relative to saturation. Blocking results represent the level of antibody necessary to inhibit 50% binding of ^125I-IGF-I ligand to immobilized human IGF-IR. Affinity was determined by BIAcore analysis according to manufacturer's specifications (Pharmacia BIACORE 3000). Soluble IGF-IR was immobilized on the sensor chips and antibody binding kinetics determined.
In general terms: In an ELISA, binding on a coated surface is turned into a signal by an enzyme label.

For assay [6], the target named is T4, IGF-IR. The assay can be described thus: BIAcore binding kinetics on immobilized soluble IGF-IR. On the set-up: recombinant extracellular portion of human IGF-IR was used to screen. As to conditions: full IgG, BIACORE 3000. As to the method:
Binding kinetic analysis was performed on 2F8 IgG using a BIAcore unit.
as §1
On the technique in general: In SPR one partner is held on a chip, and binding of the other changes the refractive index at the surface.

For assay [7], the system named is Akt. The assay can be described thus: IGF-I mediated Akt phosphorylation, western blot. Conditions: MCF7 cells; IGF-I stimulated; A12 even at 10 nM. Type of assay: cell-based, human. As to the method:
To visualize the inhibitory effect of the anti-IGF-IR antibodies on IGF-I signaling, receptor auto-phosphorylation and downstream effector molecule phosphorylation analysis was performed in the presence or absence of antibody A12 or 2F8. The MCF7 human breast cancer cell line was selected for use due to its high IGF-IR density. Cells were plated into 10 cm or 6 well culture dishes and grown to 70-80% confluence. The monolayers were then washed twice in PBS and cultured overnight in serum free defined medium. Anti-IGF-IR antibody was then added in fresh serum-free media (100 nM-10 nM) and incubated cells 30 minutes before addition of ligand (10 nM). Cells were incubated with ligand for 10 minutes, then placed on ice and washed with ice-cold PBS. […] Tyrosine phosphorylated protein was detected on the blot using an anti-p-tyrosine antibody (Cell Signaling #9411) and an anti-mouse-HRP secondary antibody. IGF-IR was detected with monoclonal antibody C-20 (Santa Cruz). For Akt phosphorylation, phospho-Akt was detected with antibody #559029 and total Akt with #559028 (BD Pharmingen). For MAPK phosphorylation, phospho-p44/42 was detected with #9101 and total p44/42 with #9102 (Cell Signaling Tech.). […]

The subject of assay [8] is HT-29 human colon carcinoma. The assay can be described thus: HT-29 xenograft, A12 with CPT-11 or paclitaxel. Type of assay: in vivo, nu/nu mice. As to the method: […] nu/nu mice were injected subcutaneously with HT-29 human colon carcinoma cell suspension, at 5×10^6 cells in 0.4 ml mixed 1:1 with Matrigel. […] All treatments were administered by intraperitoneal injection.
Treatment continued for six weeks and tumor measurements were recorded twice weekly using the formula Volume=(π/6)l×w^2. At day 21 four animals per group were sacrificed and the tumors resected for histological evaluation. Treatment and tumor measurements continued on the remaining animals until day 40. At that time final tumor measurements were recorded, animals sacrificed, and four per group had tumor resected for endpoint histological evaluation.

“A12: fully human IgG1 anti-IGF-IR antibody, lambda light chain; VH SEQ ID NO:2, VL SEQ ID NO:10; affinity matured from 2F8”: in assay [1], the “blocking of insulin binding” value is recorded as “neither 2F8 nor the high affinity A12 antibody blocked insulin binding”. Further, the “effect on total cellular IGF-IR” value in assay [2] is on record as “severe depletion of IGF-IR levels”. In addition, the anti-tumor activity result in assay [3] (100 μg every three days) was “Anti-tumor activity was also observed”. Also, the “reduction in tumor growth compared to control” value in assay [3] (every three days, P<0.05, dose of this value not stated (1 mg, 100 μg, 10 μg tested)) turned out to be 74%. Further, in assay [4], the “shift of surface IGF-IR fluorescence intensity” value is on record as “shift was not seen”. Further, in assay [5], the EC50 turned out to be 0.3 nM. Further, the “Affinity Koff” value in assay [6] is listed as “Koff = 3.0 × 10^−5”. Besides, the “Affinity Kon” value in assay [6] is recorded as “Kon = 7.2 × 10^5”. Besides, the Kd in assay [6] (read-out: Affinity KD) came to 0.041 nM. For the same substance, the “inhibition of Akt phosphorylation” value in assay [7] is recorded as “significantly inhibited Akt phosphorylation”. The T/C % in assay [8] (day 12, ip, A12 1 mg 3 times per week, irinotecan 2 mg or paclitaxel 121 μg every 7 days) is listed as 69%; in assay [8] (day 15, same regimens) it was 62%; in assay [8] (day 19, same regimens), 64%; in assay [8] (day 22, same regimens), 58%; in assay [8] (day 26, same regimens), 62%; in assay [8] (day 29, same regimens) it was 61%. Further, the T/C % came out at 58% in assay [8] (day 33, same regimens); 53% in assay [8] (day 36, same regimens); 54% in assay [8] (day 40, same regimens). Further, the “inhibition of growth of HT-29 xenografts compared to TBS control” value in assay [8] (single agent) is “significantly (P<0.02) inhibited”.
